Results taken from EP2364976B1, “S1P receptor modulating compounds and use thereof” (EPIX Pharmaceuticals, Inc., priority 2007, dated 2007).

Biological target: T1, hS1P1 (Homo sapiens, UniProt P21453)
T1 construct: expressed in transfected cells
Test: hS1P1 EC50 (S1P receptor Ca2+ flux protocol, FLIPR, CHO K1 Gqi5 cells)
Assay type: cell-based
Conditions: several values per compound = repeat determinations as printed
How it was run: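 Calcium flux (FLIPR) in CHO K1 cells stably expressing Gqi5 and N-terminally V5-tagged human S1P1, loaded with calcium dye 90 min at RT. Peak fluorescence recorded 90 s after compound addition (10-point 3x dilution, 0.25% DMSO), normalized to 200 nM S1P (100%) and buffer (0%); EC50 from 4-parameter fit.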

T1 sequence (P21453 whole entry): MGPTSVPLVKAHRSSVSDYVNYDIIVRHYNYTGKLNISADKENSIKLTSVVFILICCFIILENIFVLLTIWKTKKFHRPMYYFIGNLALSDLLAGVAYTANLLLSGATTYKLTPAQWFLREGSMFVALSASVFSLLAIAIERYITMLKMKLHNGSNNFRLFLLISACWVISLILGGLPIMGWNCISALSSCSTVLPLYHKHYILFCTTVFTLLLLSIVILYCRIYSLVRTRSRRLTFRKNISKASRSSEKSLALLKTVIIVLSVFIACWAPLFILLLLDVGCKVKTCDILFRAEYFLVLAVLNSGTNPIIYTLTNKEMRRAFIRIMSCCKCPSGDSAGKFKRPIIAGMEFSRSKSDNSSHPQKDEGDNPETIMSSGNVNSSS

First: O=C(O)C1CN(Cc2ccc(-c3cc4cc(Cc5ncccn5)ccc4o3)c(F)c2)C1 [Reference Compound 100]
Second: O=C(O)C1CN(Cc2ccc(-c3cc4cc(Cc5ccccc5)ncc4o3)c(F)c2)C1 [Reference Compound 108, 1-((4-(5-Benzylfuro[2,3-c]pyridin-2-yl)-3-fluorophenyl)methyl)azetidine-3-carboxylic acid]
The EC50 of the first is 4.7-fold lower: 87 nM for the first, 409 nM for the second.

Compared with O=C(c1ccccc1)c1ccc2oc(-c3ccc(CN4CC(C(=O)O)C4)cc3F)cc2c1 [Reference Compound 102, 1-((4-(5-Benzoylbenzofuran-2-yl)-3-fluorophenyl)methyl)azetidine-3-carboxylic acid], O=C(O)C1CN(Cc2ccc(-c3cc4nc(Cc5ccccc5)ccc4o3)c(F)c2)C1 [Reference Compound 109, 1-((4-(5-Benzylfuro[3,2-b]pyridin-2-yl)-3-fluorophenyl)methyl)azetidine-3-carboxylic acid] is 5.1-fold higher in EC50: 80 nM for the first, 409 nM for the second. The first is the more potent here.

Going from O=C(O)C1CN(Cc2ccc(-c3cc4cc(Cc5ccccc5)nc(Cl)c4o3)c(F)c2)C1 [Reference Compound 107, 1-((4-(5-Benzyl-7-chlorofuro[2,3-c]pyridin-2-yl)-3-fluorophenyl)methyl)azetidine-3-carboxylic acid] to O=C(O)C1CN(Cc2ccc(-c3nc4ccc(Cc5ccccc5)cc4o3)c(F)c2)C1 [Reference Compound 111, 1-((4-(6-Benzylbenzo[d]oxazol-2-yl)-3-fluorophenyl)methyl)azetidine-3-carboxylic acid], the EC50 falls from 2580 nM to 8 nM (320-fold).

First: O=C(O)C1CN(Cc2ccc(-c3nc4cc(Cc5ccccc5)ccc4o3)c(F)c2)C1 [Reference Compound 112, 1-((4-(5-Benzylbenzo[d]oxazol-2-yl)-3-fluorophenyl)methyl)azetidine-3-carboxylic acid]
Second: O=C(O)C1CN(Cc2ccc(-c3nc4cc(Oc5ccccc5)ccc4o3)c(F)c2)C1 [Reference Compound 116, 1-((3-Fluoro-4-(5-phenoxybenzo[d]oxazol-2-yl)phenyl)methyl)azetidine-3-carboxylic acid]
The EC50 of the first is 1.6-fold higher: 19 nM for the first, 12 nM for the second. The second is the more potent here.

First: O=C(O)C1CN(Cc2ccc(-c3nc4cc(Cc5ccccc5)ccc4o3)cc2)C1 [Reference Compound 113, 1-((4-(5-Benzylbenzo[d]oxazol-2-yl)phenyl)methyl)azetidine-3-carboxylic acid]
Second: O=C(O)C1CN(Cc2cnc(-c3cc4cc(Cc5ccccc5)ccc4o3)nc2)C1 [Reference Compound 121, 1-((2-(5-Benzylbenzofuran-2-yl)pyrimidin-5-yl)methyl)azetidine-3-carboxylic acid]
The EC50 of the first is 3.6-fold lower: 364 nM for the first, 1320 nM for the second.

Going from O=C(O)C1CN(Cc2ccc(-c3nc4ccc(Cc5ccccc5)cc4[nH]3)c(F)c2)C1 [Reference Compound 115, 1-((4-(5-Benzyl-1H-benzo[d]imidazol-2-yl)-3-fluorophenyl)methyl)azetidine-3-carboxylic acid] to O=C(O)C1CN(Cc2ccc(-c3nc4ccc(Cc5ccccc5)cc4s3)c(F)c2)C1 [Reference Compound 118, 1-((4-(6-Benzylbenzo[d]thiazol-2-yl)-3-fluorophenyl)methyl)azetidine-3-carboxylic acid], the EC50 falls from 4950 nM to 149 nM (33-fold). The second is the more potent here.

Cc1nc(-c2cc3cc(Cc4ccccc4)ccc3o2)ccc1CN1CC(C(=O)O)C1 [Reference Compound 122, 1-((6-(5-Benzylbenzofuran-2-yl)-2-methylpyridin-3-yl)methyl)azetidine-3-carboxylic acid] and CC(c1ccc(-c2cc3cc(Cc4ccccc4)ccc3o2)c(F)c1)N1CC(C(=O)O)C1 (centres unmarked) [Reference Compound 123, 1-(1-(4-(5-benzylbenzofuran-2-yl)-3-fluorophenyl)ethyl)azetidine-3-carboxylic acid] are within 1.5-fold of each other in EC50: 420 nM for the first, 313 nM for the second.
